Assay results: patent publication US9845319B2, “Amide substituted thiazoles as modulators of RORyt” (Janssen Pharmaceutica NV, priority 2014, dated 2017)
pIC50, pKd: −log10 of the molar value.

Experiments:
[1] = target: T1, human RORγt ligand binding domain (RORγt LBD) (Homo sapiens, UniProt P51449); test: RORγt ThermoFluor assay; details: estimated from thermal shift concentration response
T1 construct: His-tag (N); TurboTEV protease cleavage site (ENLYFQG) (N); made in house; host or cells: E. coli (pHIS1, a modified pET expression vector)
T1 sequence (P51449 with tags, fused parts or gaps): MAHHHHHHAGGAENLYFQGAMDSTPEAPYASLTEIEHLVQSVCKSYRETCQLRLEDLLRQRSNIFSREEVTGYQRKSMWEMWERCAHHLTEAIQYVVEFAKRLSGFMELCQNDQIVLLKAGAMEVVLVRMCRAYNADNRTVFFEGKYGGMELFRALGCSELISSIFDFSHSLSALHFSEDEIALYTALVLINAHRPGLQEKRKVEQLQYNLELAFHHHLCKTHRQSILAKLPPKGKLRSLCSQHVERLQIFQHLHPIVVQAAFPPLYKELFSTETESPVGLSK
Protocol: This approach is applicable to a wide variety of systems, and rigorous in theoretical interpretation through quantitation of equilibrium binding constants (KD).
The shift in the melting point described as a ΔTm is proportional to the concentration and affinity of the ligand.
Protein and compound solutions are dispensed into black 384-well polypropylene PCR microplates (Abgene) and overlayed with silicone oil (1 μL, Fluka, type DC 200) to prevent evaporation.
Bar-coded assay plates are robotically loaded onto a thermostatically controlled PCR-type thermal block and then heated at a typical ramp-rate of 1° C./min for all experiments.
Fluorescence was measured by continuous illumination with UV light (Hamamatsu LC6) supplied via fiber optic and filtered through a band-pass filter (380-400 nm; >6 OD cutoff). Fluorescence emission of the entire 384-well plate was detected by measuring light intensity using a CCD camera (Sensys, Roper Scientific) filtered to detect 500±25 nm, resulting in simultaneous and independent readings of all 384 wells. Images were collected at each temperature, and the sum of the pixel intensity in a given area of the assay plate was recorded versus temperature. Reference wells contained RORγt without compounds, and the assay conditions were as follows: • 0.065 mg/mL RORγt • 60 μM 1,8-ANS • 100 mM Hepes, pH 7.0 • 10 mM NaCl • 2.5 mM GSH • 0.002% Tween-20
Project compounds were arranged in a pre-dosed mother plate (Greiner Bio-one) wherein compounds are serially diluted in 100% DMSO by 1:2 from a high concentration of 10 mM over 12 columns within a series (column 12 is a reference well containing DMSO, no compound). The compounds were robotically dispensed directly into assay plates (1×=46 nL) using a Hummingbird capillary liquid handling instrument (Digilab). Following compound dispense, protein and dye in buffer was added to achieve the final assay volume of 3 μL, followed by 1 μL of silicone oil.

full-length human RORγt = target: T2, full-length human RORγt (Homo sapiens, UniProt P51449); test: RORγt (full-length human) Reporter Assay, Conditions A; format: cell-based; details: for pIC50: HEK293T cells, GAL4-DBD-RORγt, luciferase, read-out: RORγt (FL) Reporter Assay A, IC50; for inhibition at 6 µM: read-out: RORγt (FL) Reporter Assay A, % inhibition @ 6 μM, 6 μM compound; for inhibition at 2 µM: read-out: RORγt (FL) Reporter Assay A, % inhibition (* at 2 μM), 2 μM compound concentration (footnote *)
T2 construct: expressed in transfected cells; host or cells: HEK293T, transiently transfected with pCMV-BD-ROR
T2 sequence (P51449 1-497 isoform P51449-2): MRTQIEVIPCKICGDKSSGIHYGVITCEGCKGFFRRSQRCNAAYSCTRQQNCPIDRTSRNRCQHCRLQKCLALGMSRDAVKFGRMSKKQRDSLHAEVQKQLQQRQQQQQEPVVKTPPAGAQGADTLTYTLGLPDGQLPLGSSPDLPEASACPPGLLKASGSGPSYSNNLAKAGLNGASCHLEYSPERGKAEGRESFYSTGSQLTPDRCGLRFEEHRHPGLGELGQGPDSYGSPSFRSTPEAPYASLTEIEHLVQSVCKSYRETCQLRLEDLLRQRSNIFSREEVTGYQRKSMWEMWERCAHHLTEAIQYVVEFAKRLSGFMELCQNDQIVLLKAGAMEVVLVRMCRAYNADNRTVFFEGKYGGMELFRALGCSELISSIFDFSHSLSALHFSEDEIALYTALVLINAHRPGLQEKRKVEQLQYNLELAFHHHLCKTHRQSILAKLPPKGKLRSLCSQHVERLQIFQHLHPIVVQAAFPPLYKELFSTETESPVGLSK
Protocol: After overnight (16 to 20 hours) incubation, media were removed and cells were lysed with 20 μL 1× Passive Lysis Buffer (Promega) for 10-15 minutes. Luminescence was measured using a BMG LUMIstar OPTIMA plate reader, after addition of 75 μL/well firefly luciferase buffer, followed by 75 μL/well Renilla luciferase buffer. To calculate the effect of compounds on RORγt activity, firefly values were normalized against values of DMSO only and values of reference compound at saturating concentration, then further normalized against Renilla signals. IC50s were generated by plotting final Renilla normalized data against compound concentration and percent inhibition was calculated against DMSO control.

Compound	pKd [1]	pIC50 (full-length human RORγt)	inhibition at 6 µM (full-length human RORγt)	inhibition at 2 µM (full-length human RORγt)
CC(C)(O)c1nnc(-c2nc(C(=O)N3CCC(F)(F)CC3)c(-c3ccc(S(=O)(=O)NC4(C(F)F)CC4)c(F)c3Cl)s2)o1 [Example 6/17, 3-Chloro-N-(1-(difluoromethyl)cyclopropyl)-4-(4-(4,4-difluoropiperidine-1-carbonyl)-2-(5-(2-hydroxypropan-2-yl)-1,3,4-oxadiazol-2-yl)thiazol-5-yl)-2-fluorobenzenesulfonamide]	7.68	7.00	105%	
C[C@H]1CCCCN1C(=O)c1nc(-c2nnc(CC(C)(C)C(=O)O)o2)sc1-c1ccc(C(O)(C(F)(F)F)C(F)(F)F)c(Cl)c1Cl [Example 2/1, (S)-3-(5-(5-(2,3-Dichloro-4-(1,1,1,3,3,3-hexafluoro-2-hydroxypropan-2-yl)phenyl)-4-(2-methylpiperidine-1-carbonyl)thiazol-2-yl)-1,3,4-oxadiazol-2-yl)-2,2-dimethylpropanoic acid]	9.01	6.64	102%	
C[C@H](NS(=O)(=O)c1ccc(-c2sc(-c3nnc(CC(C)(C)O)o3)nc2C(=O)N2CCC(F)(F)CC2)c(Cl)c1Cl)C(F)(F)F [Example 3, (S)-2,3-Dichloro-4-(4-(4,4-difluoropiperidine-1-carbonyl)-2-(5-(2-hydroxy-2-methylpropyl)-1,3,4-oxadiazol-2-yl)thiazol-5-yl)-N-(1,1,1-trifluoropropan-2-yl)benzenesulfonamide]	8.80	7.59	107%	
C[C@H](NS(=O)(=O)c1ccc(-c2sc(-c3nnc(C(C)(C)O)o3)nc2C(=O)N2CC(F)(F)C[C@@H]2C)c(C(F)F)c1F)C(F)(F)F [Example 6/4, 4-(4-((S)-4,4-Difluoro-2-methylpyrrolidine-1-carbonyl)-2-(5-(2-hydroxypropan-2-yl)-1,3,4-oxadiazol-2-yl)thiazol-5-yl)-3-(difluoromethyl)-2-fluoro-N—((S)-1,1,1-trifluoropropan-2-yl)benzenesulfonamide]	8.17	7.09	108%	
C[C@H](NS(=O)(=O)c1ccc(-c2sc(-c3nnco3)nc2C(=O)N2CCC(F)(F)CC2)c(Cl)c1Cl)C(F)(F)F [Example 4/5, (S)-2,3-Dichloro-4-(4-(4,4-difluoropiperidine-1-carbonyl)-2-(1,3,4-oxadiazol-2-yl)thiazol-5-yl)-N-(1,1,1-trifluoropropan-2-yl)benzenesulfonamide]	7.92	7.28	110%	
CC1CCN(C(=O)c2nc(-c3nnc(C(N)=O)o3)sc2-c2ccc(S(=O)(=O)N[C@@H](C)C(F)(F)F)c3ccccc23)CC1 [Example 5, (S)-5-(4-(4-Methylpiperidine-1-carbonyl)-5-(4-(N-(1,1,1-trifluoropropan-2-yl)sulfamoyl)naphthalen-1-yl)thiazol-2-yl)-1,3,4-oxadiazole-2-carboxamide]	7.43	6.77	106%	
CC(C)(O)Cc1nnc(-c2nc(C(=O)N3CCC(F)CC3)c(-c3ccc(C(O)(C(F)(F)F)C(F)(F)F)c(Cl)c3Cl)s2)o1 [Example 3/4, (5-(2,3-Dichloro-4-(1,1,1,3,3,3-hexafluoro-2-hydroxypropan-2-yl)phenyl)-2-(5-(2-hydroxy-2-methylpropyl)-1,3,4-oxadiazol-2-yl)thiazol-4-yl)(4-fluoropiperidin-1-yl)methanone]	7.62	7.30		106%

Results, then the molecule that gave them:

pKd [1]	pIC50 (full-length human RORγt)	inhibition at 6 µM (full-length human RORγt)	inhibition at 2 µM (full-length human RORγt)	Compound
7.49	6.92		99%	CCN(CC)C(=O)c1nc(-c2nnc(C(C)(C)O)[nH]2)sc1-c1ccc(C(O)(C(F)(F)F)C(F)(F)F)c(Cl)c1Cl [Example 9, 5-(2,3-Dichloro-4-(1,1,1,3,3,3-hexafluoro-2-hydroxypropan-2-yl)phenyl)-N,N-diethyl-2-(5-(2-hydroxypropan-2-yl)-4H-1,2,4-triazol-3-yl)thiazole-4-carboxamide]
8.15	7.85		104%	CCN(CC)C(=O)c1nc(-c2cccc(C(C)(C)O)n2)sc1-c1ccc(S(=O)(=O)N[C@@H](C)C(F)(F)F)c(Cl)c1Cl [Example 17, (S)-5-(2,3-Dichloro-4-(N-(1,1,1-trifluoropropan-2-yl)sulfamoyl)phenyl)-N,N-diethyl-2-(6-(2-hydroxypropan-2-yl)pyridin-2-yl)thiazole-4-carboxamide]
7.92	7.34	108%		C[C@H](NS(=O)(=O)c1ccc(-c2sc(-c3noc(C(C)(C)O)n3)nc2C(=O)N2CCC(F)(F)CC2)c(C(F)F)c1F)C(F)(F)F [Example 11/2, (S)-3-(Difluoromethyl)-4-(4-(4,4-difluoropiperidine-1-carbonyl)-2-(5-(2-hydroxypropan-2-yl)-1,2,4-oxadiazol-3-yl)thiazol-5-yl)-2-fluoro-N-(1,1,1-trifluoropropan-2-yl)benzenesulfonamide]
9.15	7.55		104%	C[C@H](NS(=O)(=O)c1ccc(-c2sc(-c3nnc(C(C)(C)O)[nH]3)nc2C(=O)N2CC(F)(F)C[C@@H]2C)c(Cl)c1Cl)C(F)(F)F [Example 9/2, 2,3-Dichloro-4-(4-((S)-4,4-difluoro-2-methylpyrrolidine-1-carbonyl)-2-(5-(2-hydroxypropan-2-yl)-4H-1,2,4-triazol-3-yl)thiazol-5-yl)-N—((S)-1,1,1-trifluoropropan-2-yl)benzenesulfonamide]
7.52	6.92	102%		CC[C@H](NS(=O)(=O)c1ccc(-c2sc(-c3noc(CC(C)(C)O)n3)nc2C(=O)N2CCC(F)(F)C2)c(C(F)F)c1F)C(F)(F)F [Example 12/1, (S)-3-(Difluoromethyl)-4-(4-(3,3-difluoropyrrolidine-1-carbonyl)-2-(5-(2-hydroxy-2-methylpropyl)-1,2,4-oxadiazol-3-yl)thiazol-5-yl)-2-fluoro-N-(1,1,1-trifluorobutan-2-yl)benzenesulfonamide]
8.92	7.21		104%	C[C@H](NS(=O)(=O)c1ccc(-c2sc(-c3nnc(C(C)(C)O)[nH]3)nc2C(=O)N2CCC(F)(F)CC2)c(Cl)c1Cl)C(F)(F)F [Example 9/3, (S)-2,3-Dichloro-4-(4-(4,4-difluoropiperidine-1-carbonyl)-2-(5-(2-hydroxypropan-2-yl)-4H-1,2,4-triazol-3-yl)thiazol-5-yl)-N-(1,1,1-trifluoropropan-2-yl)benzenesulfonamide]
6.54	6.92	102%		CCN(CC)C(=O)c1nc(-c2nnc(C)o2)sc1-c1ccc(S(=O)(=O)N[C@@H](C)C(F)(F)F)c(Cl)c1Cl [Example 7, (S)-5-(2,3-Dichloro-4-(N-(1,1,1-trifluoropropan-2-yl)sulfamoyl)phenyl)-N,N-diethyl-2-(5-methyl-1,3,4-oxadiazol-2-yl)thiazole-4-carboxamide]
